In the supplement of paper PMC10307832:

Tests used:
Assay in all cases: relative viability (nuclei count vs DMSO), 5 days (fraction); higher = more cells survive
[1] = test system: LCLC-103H
Summary of the method: (§1)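 Lung cancer cell lines in 1536-well plates were dosed by pin tool the day after seeding, either with one drug alone or with a fixed anchor-drug dose plus five library-drug doses (not always all listed) in √10 steps. After 5 days, cells were fixed and their nuclei stained in one step (final 0.05% Triton X-100, 1% formaldehyde, 1 ug/ml Hoechst), then counted on 4× images. Relative viability is the nuclei count in treated wells divided by that in vehicle wells. Values are medians of duplicate plates.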

[2] = test system: NCI-H358
Summary of the method: as §1

[3] = test system: EMC-BAC-2
Summary of the method: as §1

[4] = test system: NCI-H596
Summary of the method: as §1

[5] = test system: HCC-44
Summary of the method: as §1

[6] = test system: SW 1573
Summary of the method: as §1

[7] = test system: HCC-827
Summary of the method: as §1

[8] = test system: NCI-H2087
Summary of the method: as §1

[9] = test system: EKVX
Summary of the method: as §1

[10] = test system: NCI-H2347
Summary of the method: as §1

[11] = test system: BEN
Summary of the method: as §1

[12] = test system: EPLC-272H
Summary of the method: as §1

[13] = test system: NCI-H1651
Summary of the method: as §1

[14] = test system: A-427
Summary of the method: as §1

[15] = test system: LXF-289
Summary of the method: as §1

[16] = test system: LK-2
Summary of the method: as §1

[17] = test system: NCI-H1915
Summary of the method: as §1

[18] = test system: NCI-H460
Summary of the method: as §1

[19] = test system: 201T
Summary of the method: as §1

[20] = test system: NCI-H1793
Summary of the method: as §1

[21] = test system: NCI-H2126
Summary of the method: as §1

[22] = test system: COR-L23
Summary of the method: as §1

Cc1cnc(-c2cnc(NCCNc3ccc(C#N)cn3)nc2-c2ccc(Cl)cc2Cl)[nH]1 + C[C@]1(O)C[C@@H](c2nc(-c3ccc4ccc(-c5ccccc5)nc4c3)c3c(N)nccn32)C1 [Linsitinib] (partner 1 µM)
relative viability ([1]; first compound 0.08 µM): 0.968
relative viability ([1]; first compound 0.253 µM): 1.11
relative viability ([1]; first compound 0.8 µM): 1.21
relative viability ([1]; first compound 2.53 µM): 1.09
relative viability ([2]; first compound 0.08 µM): 0.833
relative viability ([2]; first compound 0.253 µM): 0.561
relative viability ([2]; first compound 0.8 µM): 0.696
relative viability ([2]; first compound 2.53 µM): 0.618
relative viability ([3]; first compound 0.08 µM): 0.852
relative viability ([3]; first compound 0.253 µM): 0.792
relative viability ([3]; first compound 0.8 µM): 0.814
relative viability ([3]; first compound 2.53 µM): 0.83
relative viability ([4]; first compound 0.08 µM): 1.02
relative viability ([4]; first compound 0.253 µM): 1.11
relative viability ([4]; first compound 0.8 µM): 1.06
relative viability ([4]; first compound 2.53 µM): 1.07
relative viability ([5]; first compound 0.08 µM): 0.685
relative viability ([5]; first compound 0.253 µM): 0.553
relative viability ([5]; first compound 0.8 µM): 0.681
relative viability ([5]; first compound 2.53 µM): 0.787
relative viability ([6]; first compound 0.08 µM): 0.945
relative viability ([6]; first compound 0.253 µM): 0.744
relative viability ([6]; first compound 0.8 µM): 0.845
relative viability ([6]; first compound 2.53 µM): 0.695
relative viability ([7]; first compound 0.08 µM): 0.963
relative viability ([7]; first compound 0.8 µM): 1.01
relative viability ([7]; first compound 2.53 µM): 0.955
relative viability ([8]; first compound 0.08 µM): 0.907
relative viability ([8]; first compound 0.253 µM): 0.978
relative viability ([8]; first compound 0.8 µM): 0.987
relative viability ([8]; first compound 2.53 µM): 1.02
relative viability ([9]; first compound 0.08 µM): 1.07
relative viability ([9]; first compound 0.253 µM): 0.794
relative viability ([9]; first compound 0.8 µM): 0.934
relative viability ([9]; first compound 2.53 µM): 0.926
relative viability ([10]; first compound 0.08 µM): 1.08
relative viability ([10]; first compound 0.253 µM): 0.72
relative viability ([10]; first compound 0.8 µM): 1
relative viability ([10]; first compound 2.53 µM): 1.02
relative viability ([11]; first compound 0.08 µM): 0.951
relative viability ([11]; first compound 0.253 µM): 0.843
relative viability ([11]; first compound 0.8 µM): 0.994
relative viability ([11]; first compound 2.53 µM): 0.928
relative viability ([12]; first compound 0.08 µM): 1.08
relative viability ([12]; first compound 0.253 µM): 1.18
relative viability ([12]; first compound 0.8 µM): 1.27
relative viability ([12]; first compound 2.53 µM): 1.13
relative viability ([13]; first compound 0.08 µM): 1.22
relative viability ([13]; first compound 0.253 µM): 0.893
relative viability ([13]; first compound 0.8 µM): 1.04
relative viability ([13]; first compound 2.53 µM): 1.06
relative viability ([14]; first compound 0.08 µM): 1.09
relative viability ([14]; first compound 0.253 µM): 1.12
relative viability ([14]; first compound 0.8 µM): 1.11
relative viability ([14]; first compound 2.53 µM): 1.15
relative viability ([15]; first compound 0.08 µM): 0.965
relative viability ([15]; first compound 0.253 µM): 0.897
relative viability ([15]; first compound 0.8 µM): 1.01
relative viability ([15]; first compound 2.53 µM): 0.984
relative viability ([16]; first compound 0.08 µM): 0.62
relative viability ([16]; first compound 0.253 µM): 0.476
relative viability ([16]; first compound 0.8 µM): 0.489
relative viability ([16]; first compound 2.53 µM): 0.789
relative viability ([17]; first compound 0.08 µM): 1.08
relative viability ([17]; first compound 0.8 µM): 1.11
relative viability ([17]; first compound 2.53 µM): 1.08
relative viability ([18]; first compound 0.08 µM): 0.918
relative viability ([18]; first compound 0.253 µM): 0.623
relative viability ([18]; first compound 0.8 µM): 0.974
relative viability ([18]; first compound 2.53 µM): 0.782
relative viability ([19]; first compound 0.08 µM): 1.03
relative viability ([19]; first compound 0.253 µM): 1.01
relative viability ([19]; first compound 0.8 µM): 1.02
relative viability ([19]; first compound 2.53 µM): 1.01
relative viability ([20]; first compound 0.08 µM): 1.16
relative viability ([20]; first compound 0.253 µM): 0.822
relative viability ([20]; first compound 0.8 µM): 0.809
relative viability ([20]; first compound 2.53 µM): 0.916
relative viability ([21]; first compound 0.08 µM): 0.739
relative viability ([21]; first compound 0.253 µM): 0.726
relative viability ([21]; first compound 0.8 µM): 0.753
relative viability ([21]; first compound 2.53 µM): 0.704
relative viability ([22]; first compound 0.08 µM): 0.814
relative viability ([22]; first compound 0.253 µM): 0.833
relative viability ([22]; first compound 0.8 µM): 0.929
relative viability ([22]; first compound 2.53 µM): 0.962
